Measured values as given in ChEMBL document CHEMBL1201862, “PubChem BioAssay data set” (2004).
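Cultured in 96-well plates, cells were exposed to test compound for 48 hours across five concentrations. Here, GI50 denotes the concentration required for 50% inhibition of growth.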 Calls of active or inactive are those of the source. Cut-off read from the data, not from the text of the source: active = GI50 up to about 1.1 µM and inactive = higher.

Assays:
Experiment in all cases: DTP human tumour cell line panel, 48 h
A549 = system: A549
BT-549 = system: BT-549
CAKI-1 = system: CAKI-1
CCRF-CEM = system: CCRF-CEM
HCT-116 = system: HCT-116
HOP-92 = system: HOP-92
IGROV-1 = system: IGROV-1
M14 = system: M14
MDA-N = system: MDA-N
NCI-H460 = system: NCI-H460
NCI/ADR-RES = system: NCI/ADR-RES
PC-3 = system: PC-3
SF-295 = system: SF-295
SK-MEL-2 = system: SK-MEL-2
SK-MEL-5 = system: SK-MEL-5
SK-OV-3 = system: SK-OV-3
SNB-75 = system: SNB-75
SR = system: SR
SW-620 = system: SW-620

Row | SMILES | GI50 (A549) | GI50 (BT-549) | GI50 (CAKI-1) | GI50 (CCRF-CEM) | GI50 (HCT-116) | GI50 (HOP-92) | GI50 (IGROV-1) | GI50 (M14) | GI50 (MDA-N) | GI50 (NCI-H460) | GI50 (NCI/ADR-RES) | GI50 (PC-3) | GI50 (SF-295) | GI50 (SK-MEL-2) | GI50 (SK-MEL-5) | GI50 (SK-OV-3) | GI50 (SNB-75) | GI50 (SR) | GI50 (SW-620)
1 | Clc1ccc(C2c3ccccc3-c3nc4ccccc4n32)cc1 (centres undefined) | 7.33 µM (inactive) | 43.5 µM (inactive) | 37.1 µM (inactive) | 17.9 µM (inactive) | 5.09 µM (inactive) | 34.8 µM (inactive) | 12.6 µM (inactive) | 31.8 µM (inactive) | 51.3 µM (inactive) | 19.7 µM (inactive) | 11.8 µM (inactive) | 19.4 µM (inactive) | 3.48 µM (inactive) | 22.2 µM (inactive) | 27.4 µM (inactive) | 3.34 µM (inactive) | 24.3 µM (inactive) | 8.99 µM (inactive) | 44.8 µM (inactive)
2 | O=c1cc(NNc2cccc(F)c2)[nH]c(=O)[nH]1 | > 100 µM (inactive) | > 100 µM (inactive) | 16.4 µM (inactive) | 22.4 µM (inactive) | 17.3 µM (inactive) | 16.3 µM (inactive) | 19.8 µM (inactive) | 18.2 µM (inactive) | 80.2 µM (inactive) | > 100 µM (inactive) | > 100 µM (inactive) | > 100 µM (inactive) | > 100 µM (inactive) | 40.5 µM (inactive) | > 100 µM (inactive) | > 100 µM (inactive) | > 100 µM (inactive) | 10.2 µM (inactive) | 18.6 µM (inactive)
3 | COC(=O)CN1Cc2cc(C)cc(c2O)CN(CC(=O)OC)Cc2cc(C)cc(c2O)CN(CC(=O)OC)Cc2cc(C)cc(c2O)CN(CC(=O)OC)Cc2cc(C)cc(c2O)C1 | 18.4 µM (inactive) | 24.8 µM (inactive) | 24.2 µM (inactive) | 2.03 µM (inactive) | 11.1 µM (inactive) | > 50 µM (inactive) | 19.7 µM (inactive) | 4.92 µM (inactive) | > 50 µM (inactive) | 6.85 µM (inactive) | 19.5 µM (inactive) | 18.5 µM (inactive) | 17.5 µM (inactive) | 13.6 µM (inactive) | 19.9 µM (inactive) | 11.9 µM (inactive) | 12.4 µM (inactive) | 6.04 µM (inactive) | 14.3 µM (inactive)
4 | CN(C)CC1CCC/C(=C\c2ccc(OC(=O)/C=C/c3ccc(Cl)c(Cl)c3)cc2)C1=O (centres undefined) | 5.86 µM (inactive) | 3.42 µM (inactive) | 2.26 µM (inactive) | 0.597 µM (active) | 3.49 µM (inactive) | 1.79 µM (inactive) | 1.47 µM (inactive) | 5.68 µM (inactive) | 3.37 µM (inactive) | 3.86 µM (inactive) | 2.92 µM (inactive) | 3.33 µM (inactive) | 7.11 µM (inactive) | 15.9 µM (inactive) | 4.09 µM (inactive) | 37.3 µM (inactive) | 18.4 µM (inactive) | 1.21 µM (inactive) | 2.75 µM (inactive)
5 | Cc1cc2nc(N3C(=O)/C(=C/c4cccc([N+](=O)[O-])c4)N=C3c3ccccc3)sc2cc1C | 36.1 µM (inactive) | 32.4 µM (inactive) | 52 µM (inactive) | 9.95 µM (inactive) | 23.9 µM (inactive) | 6.7 µM (inactive) | 12.5 µM (inactive) | 37.2 µM (inactive) | 12.5 µM (inactive) | 29.2 µM (inactive) | 28.4 µM (inactive) | 17.4 µM (inactive) | 32.4 µM (inactive) | 23.1 µM (inactive) | 30.1 µM (inactive) | 67.8 µM (inactive) | 6.84 µM (inactive) | 14.9 µM (inactive) | 27 µM (inactive)
6 | CC1=NC(C)(COC(=O)C2(C)NC(C)(CO)CO2)COC1=O (centres undefined) | > 100 µM (inactive) | > 100 µM (inactive) | > 100 µM (inactive) | > 100 µM (inactive) | > 100 µM (inactive) | > 100 µM (inactive) | > 100 µM (inactive) | > 100 µM (inactive) | > 100 µM (inactive) | > 100 µM (inactive) | > 100 µM (inactive) | > 100 µM (inactive) | > 100 µM (inactive) | > 100 µM (inactive) | > 100 µM (inactive) | > 100 µM (inactive) | > 100 µM (inactive) | > 33 µM (inactive) | > 100 µM (inactive)
